{"source": "patent US8404665B2", "about": "“In vivo use of glutathione S-transferase activated nitric oxide donors” (University of Utah Research Foundation, priority 2002, dated 2013)", "key": {"[1]": {"tested_on": "HL-60 cells", "experiment": "Apoptosis in HL-60 cells by flow cytometry (sub-G0 fraction)", "type": "cell-based, human", "conditions": "for percentage of apoptotic cells (sub-G0 fraction): three days post-addition, control 7 percent", "experimental": "(§1) Cell Lines and Culture Conditions. HL-60, DLD1, and U937 cells were obtained from ATCC (Rockville, Md.). Meth A cells were from Dr. Wolfram Samlowski (University of Utah, Salt Lake City, Utah). The PPC-1 cell line was provided by Dr. Graeme Bolger (University of Alabama, Birmingham, Ala.). For the cell growth and apoptosis experiments, cells were cultured at a density of 150,000 cells/ml in RPMI-1640 with 10% fetal bovine serum at 37° C. in a 5% CO2 humidified atmosphere. Agents were added at the indicated concentrations 24 h after culture initiation. At the indicated time intervals, cells were harvested and washed twice in phosphate buffered saline (PBS) prior to processing for analysis of growth, differentiation, and apoptosis.\nCell Growth, Differentiation and Apoptosis Assays. The number of viable cells was determined using the MTT assay according to the manufacturer's protocol (Promega, Madison, Wis.) or using a Coulter counter. Briefly, a MTT assay is an analytical technique that uses the dye dimethylthiazolyl-diphenyltetrazolium (MTT) which turns from yellow to brownish-purple as it is reduced in the mitochondria of living cells. The assay is useful in calorimetric quantitation of cell viability and proliferation. In contrast, cell differentiation was evaluated using Wright and Non-Specific Esterase (NSE) staining of cells collected on microscope slides by cytospin as previously described (Magrinat, G. et al. (1992) Blood 80: 1880-1884). Apoptosis was assayed by flow cytometry and by determining DNA fragmentation using agarose gel electrophoresis as previously described (Shami, P. J. et al. (1998) Leukemia 12: 1461-1466). For the flow cytometry assay, we used the propidium iodide staining method of Nicoletti et al. (Nicoletti, I. et al. (1991) J. Immunol. Methods 139: 271-279).\nTo determine if JS-K could induce apoptosis in leukemia cells, it was added to HL-60 cells at concentrations of 0.5 and 1.0 μM. Three days post-addition, the percentage of apoptotic cells was determined by measuring the number of cells in the sub-G0 fraction of the cell cycle using flow cytometry. […]"}, "[2]": {"tested_on": "Meth A", "experiment": "Meth A solid tumor cell growth", "type": "cell-based", "experimental": "as §1\n(§2) Cell Growth, Differentiation and Apoptosis Assays. The number of viable cells was determined using the MTT assay according to the manufacturer's protocol (Promega, Madison, Wis.) or using a Coulter counter. […] The assay is useful in calorimetric quantitation of cell viability and proliferation. In contrast, cell differentiation was evaluated using Wright and Non-Specific Esterase (NSE) staining of cells collected on microscope slides by cytospin as previously described (Magrinat, G. et al. (1992) Blood 80: 1880-1884). […]"}, "[3]": {"tested_on": "PPC-1 cells", "experiment": "PPC-1 prostate cancer cell growth in vitro", "type": "cell-based", "experimental": "as §1, §2"}, "[4]": {"tested_on": "HL-60 cells", "experiment": "Combination treatment: JS-K pretreatment then etoposide or daunorubicin, MTT", "type": "cell-based, human", "conditions": "HL-60, JS-K pretreatment (0.25 μM)", "experimental": "Combination treatment. For combined drug treatment, HL-60 cell lines were pretreated with JS-K (0.25 μM) for 6 h in RPMI 1640 at 37° C. The JS-K-containing culture medium was then removed and replaced with fresh RPMI-1640. Three different concentrations of either etoposide (0.2, 0.3 and 0.4 μM) or daunorubicin (5, 10 and 50 nM) were added to the pretreated HL-60 cells. The cells were incubated at 37° C. for additional 48 hours. Solution of 3-[4,5-dimethylthiazol-2-yl]-2,5-[…] (MTT) tetrazolium salt (1 mg/ml) was added to the cells. The cells were incubated again for 3 h to allow for MTT metabolism to formazan by the succinate-tetrazolim reductase system active only in viable cells. A solution of 0.04 N HCl in isopropyl alcohol was added to stop the MTT assay. The supernatant was then aspirated and 150 μl of trituration was added to dissolve the water-insoluble blue formazan. The optical densities were read on a spectrophotometric plate reader at a single wavelength of 570 nm. The absorbance for control cells was defined as an MTT activity of 100%."}, "[5]": {"experiment": "NO release by chemiluminescence detection, GSH without enzyme", "type": "physicochemical", "experimental": "Measurement of NO Release. Chemiluminescence detection and quantification of NO evolving from the reactions of JS-K were conducted using an NO-specific Thermal Energy Analyzer (Model 502A, Thermedics, Analytical Instrument Division, Waltham, Mass.) essentially as previously described (Keefer, L. K. et al. (1996) Methods Enzymol. 268: 281-293). Briefly, pH 7.4 phosphate buffer containing 1 mM GSH was sparged with inert gas until a steady detector response was established. Where indicated, GSTs were added to a final concentration of 1.67 ug of enzyme/ml. […] The resulting curve was integrated to quantify the amount of NO released/mole of compound.\nThese reactions led to NO generation as predicted as indicated by purging gases from the solution as they formed into an NO-specific chemiluminescence detector. […] In the absence of enzyme, NO release began immediately upon adding GSH, increasing in rate until plateauing at 8 min and integrating to a total of 1.1 mol of NO per mol of JS-K within 43 min of mixing."}, "[6]": {"tested_on": "HL-60 cells", "experiment": "NO generation (nitrate and nitrite) by HL-60 cells in serum-free PBS", "type": "cell-based, human", "experimental": "Production of NO was then determined by measuring levels of nitrate and nitrite, byproducts of NO oxidation. Serum-free buffer was used to eliminate the confounding effects of nitrates in the serum or medium. When added to HL-60 cells suspended in serum-free phosphate buffered saline (PBS) buffer at a concentration of 10 μM, JS-K appeared to generate NO in a time-dependent fashion with peak levels at 24 hours. […] For this, JS-K was added to HL-60 cells suspended in serum-free PBS at a concentration of 20 μM and nitrate+nitrite levels in the supernatants were determined 24 hours post-addition."}}, "note": "“Also recorded” adds a separate entry of the source."}
{"smiles": "CCOC(=O)N1CCN(/[N+]([O-])=N/Oc2ccc([N+](=O)[O-])cc2[N+](=O)[O-])CC1", "note": "[JS-K, O^2-(2,4-dinitrophenyl) 1-[(4-ethoxycarbonyl)piperazin-1-yl]diazen-1-ium-1,2-diolate]", "values": [{"measurement": "percentage of apoptotic cells (sub-G0 fraction)", "setting": "[1]; 0.5 μM", "value": "27±3", "unit": "%"}, {"measurement": "percentage of apoptotic cells (sub-G0 fraction)", "setting": "[1]; 1.0 μM", "value": "43±2", "unit": "%"}, {"measurement": "percentage of apoptotic cells", "setting": "[1]; HL-60, flow cytometry, co-administration of C-VAD-FMK and JS-K, p=0.44 vs untreated", "value": "2.65+/−0.28%"}, {"measurement": "IC50 relative to leukemia lines", "setting": "[2]", "value": "an order of magnitude greater than those for the two leukemia lines"}, {"measurement": "cell growth inhibition", "setting": "[3]; 1, 2, 3, 4 and 5 μM, 3 days", "value": "potent inhibitor of prostate cancer growth"}, {"measurement": "IC50 relative to leukemia lines", "setting": "[3]; PPC-1", "value": "an order of magnitude greater than those for the two leukemia lines"}, {"measurement": "effect of JS-K pretreatment on daunorubicin and etoposide", "setting": "[4]", "value": "additive effect; also recorded: significantly enhanced efficacy of daunorubicin and etoposide"}, {"measurement": "time at which NO release rate plateaued", "setting": "[5]; 1 mM GSH, no enzyme", "value": 8, "unit": "min"}, {"measurement": "total NO released", "setting": "[5]; 1 mM GSH, pH 7.4 phosphate, 0.67 uM JS-K, no enzyme, within 43 min of mixing", "value": "1.1 mol of NO per mol of JS-K"}, {"measurement": "NO detection without GSH", "setting": "[5]; pH 7.4 phosphate/0.67 uM JS-K solution", "value": "did not appear to be detected until 1 mM GSH was added"}, {"measurement": "time of peak NO levels (nitrate and nitrite)", "setting": "[6]; 10 μM, HL-60 cells in serum-free PBS", "value": 24, "unit": "h"}, {"measurement": "extent of NO release versus cell number", "setting": "[6]; 20 μM, nitrate+nitrite in supernatants 24 hours post-addition", "value": "positively correlated with the cell number"}, {"measurement": "activation of JS-K and NO release by supernatants from HL-60 cells", "setting": "[6]; cell supernatants only", "value": "did not induce activation of JS-K and NO release"}]}
